What was measured:
Format in all cases: in vivo, human
[1] = system: physiologic FDG uptake in the intestinal tract; assay: PET-CT scan studies of intestinal FDG uptake with other rifaximin regimens (Examples 2-6)
Description: Patients scheduled for clinically-indicated PET-CT scan are administered rifaximin 550 mg twice daily (BID) for five days prior to their scans. Each patient has their prior scheduled PET-CT used as control; that is, their prior PET-CT scan is evaluated as a pre-treatment baseline for intestinal FDG uptake (paired controls). The PET-CT scans of a randomly-selected cohort of patients also scheduled for clinically-indicated PET-CT during the same time period are used as independent controls. Cecal SUVMax (maximum-pixel-value standardized uptake value) and SUVAvg (average standardized uptake value) for all scans are measured by a radiologist blinded to treatment/control status and normalized to liver SUV, which is selected as the reference for normal tissue activity. A qualitative score of colonic uptake (0-4) is also assessed. Statistical analysis was performed by comparing mean SUV cecum/liver by paired t-test (pre & post) or unpaired t-test (treated & controls). The effect of rifaximin on a global measure of colonic SUV is also measured. Patients scheduled for clinically-indicated PET-CT scan are administered rifaximin 550 mg twice daily (BID) for seven days prior to their scans. Each patient has their prior scheduled PET-CT used as control; that is, their prior PET-CT scan is evaluated as a pre-treatment baseline for intestinal FDG uptake (paired controls). The PET-CT scans of a randomly-selected cohort of patients also scheduled for clinically-indicated PET-CT during the same time period are used as independent controls. Cecal SUVMax (maximum-pixel-value standardized uptake value) and SUVAvg (average standardized uptake value) for all scans are measured by a radiologist blinded to treatment/control status and normalized to liver SUV, which is selected as the reference for normal tissue activity. A qualitative score of colonic uptake (0-4) is also assessed. Statistical analysis was performed by comparing mean SUV cecum/liver by paired t-test (pre & post) or unpaired t-test (treated & controls). The effect of rifaximin on a global measure of colonic SUV is also measured. Patients scheduled for clinically-indicated PET-CT scan are administered rifaximin 550 mg twice daily (BID) for between 48 hours to five days prior to their scans. Each patient has their prior scheduled PET-CT used as control; that is, their prior PET-CT scan is evaluated as a pre-treatment baseline for intestinal FDG uptake (paired controls). […] Cecal SUVMax (maximum-pixel-value standardized uptake value) and SUVAvg (average standardized uptake value) for all scans are measured by a radiologist blinded to treatment/control status and normalized to liver SUV, which is selected as the reference for normal tissue activity. A qualitative score of colonic uptake (0-4) is also assessed. […] The effect of rifaximin on a global measure of colonic SUV is also measured. […] Each patient has their prior scheduled PET-CT used as control; that is, their prior PET-CT scan is evaluated as a pre-treatment baseline for intestinal FDG uptake (paired controls). […] Cecal SUVMax (maximum-pixel-value standardized uptake value) and SUVAvg (average standardized uptake value) for all scans are measured by a radiologist blinded to treatment/control status and normalized to liver SUV, which is selected as the reference for normal tissue activity. A qualitative score of colonic uptake (0-4) is also assessed. […]

[2] = Adverse events in the rifaximin-treated group (Example 1); conditions: rifaximin 550 mg BID for two days, 30 patients
Description: (§1) This example relates to a study to determine whether an oral antibiotic, rifaximin, administered prior to PET-CT scan can reduce physiologic FDG uptake in the intestinal tract. Thirty (30) patients scheduled for clinically-indicated PET-CT scans were enrolled to receive rifaximin 550 mg twice daily (BID) for two days prior to their scans. Each patient had their prior scheduled PET-CT used as control; that is, their prior PET-CT scan was evaluated as a pre-treatment baseline for intestinal FDG uptake (paired controls). The PET-CT scans of a randomly-selected cohort of 90 patients also scheduled for clinically-indicated PET-CT during the same time period were also used as controls (independent controls). All images were stripped of identifying data, and SUVMax (maximum-pixel-value standardized uptake value) and SUVAvg (average standardized uptake value) for all scans were measured by a radiologist blinded to treatment/control status and normalized to liver SUV, which was selected as the reference for normal tissue activity. A qualitative score of colonic uptake (0-4) was also assessed. Statistical analysis was performed by comparing mean SUV cecum/liver by paired t-test (pre & post) or unpaired t-test (treated & controls).

[3] = system: physiologic FDG uptake in the intestinal tract; assay: PET-CT scan study of intestinal FDG uptake after rifaximin pre-treatment (Example 1)
Description: as §1

In the case of CO[C@H]1/C=C/O[C@@]2(C)Oc3c(C)c(O)c4c(O)c(c5c(nc6cc(C)ccn65)c4c3C2=O)NC(=O)/C(C)=C\C=C\[C@H](C)[C@H](O)[C@@H](C)[C@@H](O)[C@@H](C)[C@H](OC(C)=O)[C@@H]1C [rifaximin, (2S,16Z,18E,20S,21S,22R, 23R,24R,25S,26S,27S,28E)-5,6,21,23,25 Pentahydroxy-27-methoxy-2,4,11,16,20,22,24,26-octamethyl-2,7-(epoxypentadeca-(1,11,13)trienimino)benzofuro(4,5-e)pyrido(1,2,-a)benzimidazole-1,15(2H)-dione,25-acetate], the “FDG uptake compared to pre-rifaximin scan” value ([1]; Example 2: 550 mg BID for five days prior to PET-CT scans) is reported as “significant reduction”, the “FDG uptake compared to pre-rifaximin scan” value ([1]; Example 3: 550 mg BID for seven days prior to PET-CT scans) is reported as “significant reduction” and the “FDG uptake compared to pre-rifaximin scan” value ([1]; Example 4: 550 mg BID for between 48 hours to 5 days prior to PET-CT scans) is reported as “significant reduction”. The “FDG uptake compared to pre-rifaximin scan” value ([1]; Example 5: 1100 mg per day for 48 hours to seven days prior to PET-CT scans) was “significant reduction”, the “FDG uptake compared to pre-rifaximin scan” value ([1]; Example 6: solid dispersion with about 10 mg to about 100 mg rifaximin, once per day up to TID, 48 hours to seven days prior to PET-CT scans) was “significant reduction” and the adverse events [2] was “No adverse events were reported”. The “OR for overall colonic SUV score <1” value [3] was 3.8, the “patients with no major change in cecal SUVmax/liver ratio after rifaximin” value [3] was 14% and the “scans with overall colonic SUV score <1” value [3] was 53%. For the same compound, the “difference (reduction) in cecal SUVmax / FDG activity in the cecum between pre- and post-rifaximin images” value ([3]; 550 mg BID for two days, paired pre-rifaximin scans, p=0.002) was 26%, the “mean cecal SUVMax in patients whose SUVMax was >2 in their prior scan” value ([3]; 550 mg, 48 h) was 3.4 and the “cecal SUVmax levels in patients with high baseline levels” value ([3]; after 2 days of rifaximin pre-treatment) was “significantly lower levels”. The “patients with higher cecal SUVmax/liver ratio post-rifaximin” value ([3]; patients (n=27) with cecal SUVmax/liver ratio >2 in pre-rifaximin scans, 2/27) was 7%, the “patients with lower cecal SUVmax/liver ratio after rifaximin” value ([3]; patients (n=27) with cecal SUVmax/liver ratio >2 in pre-rifaximin scans, 21/27, p=0.0005) was 78% and the “patients with down-grading of FDG signal intensity (overall colonic SUV signal)” value ([3]; patients with an initial high cecal SUVMax, FIG. 4) was 80%. For the same compound, the “Normalized (mean) cecal SUVAvg” value ([3]; post-rifaximin scan, 550 mg BID two days, 2.0 without rifaximin, p=0.02 paired t-test) was 1.6, the “Mean colon SUVmax” value ([3]; post-rifaximin scan, 550 mg BID two days, pre-rifaximin 4.0, p=0.7) was 3.8 and the “distribution of overall colonic SUV grades” value ([3]; post-rifaximin scans, score 0-4 by blinded reader, FIG. 4) was “left-shift in the distribution of colonic SUV grades from higher to lower grades”. For the same compound, the “mean cecal SUVMax, rifaximin-treated patients vs random control scans” value ([3]; random control scans mean 4.2, no significant difference, p=0.2 unpaired t-test) was 3.4, the “FDG uptake compared to pre-rifaximin scan” value ([3]; rifaximin for 2 days prior to PET-CT scans) was “significant reduction” and the “qualitative score of whole colonic uptake (0-4), mean” value ([3]; rifaximin pre-treated group, reduced from 2.3, p=0.07) was 1.8. For the same compound, the “overall percentage of patients with grade of colonic FDG intensity >1” value ([3]; with rifaximin compared to without rifaximin, FIG. 4) was “lower”.

Reference: US20160128990A1, “METHODS OF USING RIFAXIMIN IN POSITION EMISSION TOMOGRAPHY (PET) SCANS” (Salix Pharmaceuticals, Ltd, priority 2013, published 2016)
